From US20080070984A1, “Compositions and Methods of Treating Schizophrenia” (priority 2006, published 2008)

Experiment: Uptake of colonically absorbable forms of levodopa after intracolonic administration in rats
Assay type: in vivo
Conditions: whole blood, other: intracolonic (directly into the colon via cannula), rat, intraperitoneal carbidopa
Method: Sustained release oral dosage forms, which release drug slowly over periods of about 6 to about 24 hours, generally release a significant proportion of the dose within the colon. Thus, drugs suitable for use in such dosage forms should be colonically absorbed.
Rats were obtained commercially and were pre-cannulated in the both the ascending colon and the jugular vein. Animals were conscious at the time of the experiment. […] Carbidopa was administered as a solution in water or citrate buffer either orally, intraperitoneally, or intracolonically at a dose equivalent to 25 mg of carbidopa per kg. […] Blood was then further quenched with methanol/perchloric acid to prevent hydrolysis of the levodopa prodrug. Blood samples were analyzed as described below.
Methanol/perchloric acid (300 μL) was added to blank 1.5 mL Eppendorf tubes. Rat blood (300 μL) was collected into EDTA tubes containing 75 μL of sodium metabisulfite at different times and vortexed to mix. A fixed volume of blood (100 μL) was immediately added into the Eppendorf tube and vortexed to mix. […] Methanol/perchloric acid (300 μL of 50/50) was then added into each tube followed by the addition of 20 μL of p-chlorophenylalanine. The samples were vortexed and centrifuged at 14,000 rpm for 10 min. The supernatant was analyzed by LC/MS/MS. […]

With N[C@@H](Cc1ccc(O)c(O)c1)C(=O)O [levodopa] the bioavailability was 3%.
